Experimental data from the NIST ThermoML archive (doi:10.1021/je050473r).
Numbers after ± are expanded uncertainties.

Conditions: Liquid
[1] = 303.15 K, Closed cell (Static) method
[2] = 353.15 K, Closed cell (Static) method
[3] = 373.1 K, Closed cell (Static) method
[4] = 413.15 K, Closed cell (Static) method

SMILES	vapor or sublimation pressure [3] [kPa]	vapor or sublimation pressure [4] [kPa]	further results
ClCCCl [1,2-dichloroethane]			vapor or sublimation pressure [1]: 13.28 ± 1 kPa; vapor or sublimation pressure [2]: 90.9 ± 1 kPa
CC(C)CC(C)(C)C [2,2,4-trimethylpentane]	103.49 ± 1.1	282.8 ± 1.4	
Cl/C=C/Cl [(E)-1,2-dichloroethene]			vapor or sublimation pressure [1]: 53.33 ± 1.1 kPa; vapor or sublimation pressure [2]: 269.9 ± 1.3 kPa
N#CC1CC1 [cyclopropanecarbonitrile]			vapor or sublimation pressure (373.1 K): 35.2 ± 1 kPa; vapor or sublimation pressure (408.15 K): 102.2 ± 1.2 kPa
O [water]			vapor or sublimation pressure (373.1 K): 101.4 ± 1.3 kPa; vapor or sublimation pressure (408.15 K): 312.4 ± 2.1 kPa

The next lines start with results.

vapor or sublimation pressure [3] [kPa]	vapor or sublimation pressure [4] [kPa]	SMILES	further results
33.26 ± 1	111.4 ± 1.1	CCc1cccs1 [2-ethylthiophene]	
69.87 ± 1.1	209.8 ± 1.2	Cc1cccs1 [2-methylthiophene]	
53.82 ± 1.1	165.9 ± 1.2	C=CCCCCCC [oct-1-ene]	
